Assay results reported in the supplement of paper PMC11424490.
Counter-ions that a name gives are not always drawn.

Columns and labels:
[1] = system: SW837; experiment: combination cScore with sotorasib (Bliss gap around IC50) (%PoC); higher = stronger additive effect
How it was run: (§1)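 The score averages the gap between expected and measured viability under Bliss independence, taken over a field around the IC50 of each single agent or, where an IC50 was not reached, at the highest concentrations. Viability came from CellTiter-Glo luminescence, normalised to vehicle wells as percent of control and fitted with four-parameter curves. NCI-H2122, NCI-H358 and SW837 cells were dosed in concentration matrices 24 h after seeding and grown for 72 h, or 144 h for SW837.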

[2] = system: NCI-H2122; experiment: as above
How it was run: as §1

| Structure (SMILES) | combination cScore with sotorasib [1] | combination cScore with sotorasib [2] |
| --- | --- | --- |
| Nc1cccc2c1CN(C1CCC(=O)NC1=O)C2=O (centres undefined) [Lenalidomide] + C=CC(=O)N1CCN(c2nc(=O)n(-c3c(C)ccnc3C(C)C)c3nc(-c4c(O)cccc4F)c(F)cc23)[C@@H](C)C1 [sotorasib] | -2.25 | 6.13 |
| Cc1cn(CCN2CCN(c3ccccc3-c3cc(C#N)cc(C(=O)NCCCN4CCCC4)c3)CC2)c2ccccc12 [LLY-507] + C=CC(=O)N1CCN(c2nc(=O)n(-c3c(C)ccnc3C(C)C)c3nc(-c4c(O)cccc4F)c(F)cc23)[C@@H](C)C1 [sotorasib] | 9.15 | 0.73 |
| CC(C)C[C@@H](C(=O)N[C@H](C(=O)OC1CCCC1)c1ccccc1)[C@H](O)C(=O)NO [Tosedostat] + C=CC(=O)N1CCN(c2nc(=O)n(-c3c(C)ccnc3C(C)C)c3nc(-c4c(O)cccc4F)c(F)cc23)[C@@H](C)C1 [sotorasib] | 31.5 | 10.4 |
| COc1cc(OC)c(/C=C/S(=O)(=O)Cc2ccc(OC)c(NCC(=O)O)c2)c(OC)c1 [Rigosertib] + C=CC(=O)N1CCN(c2nc(=O)n(-c3c(C)ccnc3C(C)C)c3nc(-c4c(O)cccc4F)c(F)cc23)[C@@H](C)C1 [sotorasib] | 13.3 | 2.41 |
| CNC(=O)c1cc(Oc2ccc(NC(=O)Nc3ccc(Cl)c(C(F)(F)F)c3)c(F)c2)ccn1 [Regorafenib] + C=CC(=O)N1CCN(c2nc(=O)n(-c3c(C)ccnc3C(C)C)c3nc(-c4c(O)cccc4F)c(F)cc23)[C@@H](C)C1 [sotorasib] | -5.66 | 7.32 |
| CS(=O)(=O)c1ccc(C(=O)Nc2ccc(Cl)c(-c3ccccn3)c2)c(Cl)c1 [Vismodegib] + C=CC(=O)N1CCN(c2nc(=O)n(-c3c(C)ccnc3C(C)C)c3nc(-c4c(O)cccc4F)c(F)cc23)[C@@H](C)C1 [sotorasib] | 9.42 | 12.1 |
| COc1ccc2nc3ccc(OC)cc3c(SCCCN)c2c1 + C=CC(=O)N1CCN(c2nc(=O)n(-c3c(C)ccnc3C(C)C)c3nc(-c4c(O)cccc4F)c(F)cc23)[C@@H](C)C1 [sotorasib] | -2.67 | 11.5 |
| CC(C)(C)c1ccc(S(=O)(=O)NCc2ccc(C(=O)Nc3cccnc3)cc2)cc1 [STF-31] + C=CC(=O)N1CCN(c2nc(=O)n(-c3c(C)ccnc3C(C)C)c3nc(-c4c(O)cccc4F)c(F)cc23)[C@@H](C)C1 [sotorasib] | 17.6 | -10.2 |
| COc1cc(Nc2ncc3c(n2)-c2ccc(Cl)cc2C(c2c(F)cccc2OC)=NC3)ccc1C(=O)O [MLN8237] + C=CC(=O)N1CCN(c2nc(=O)n(-c3c(C)ccnc3C(C)C)c3nc(-c4c(O)cccc4F)c(F)cc23)[C@@H](C)C1 [sotorasib] | 10.3 | -3.51 |
| Nc1ccn([C@@H]2O[C@H](CO)[C@@H](O)[C@@H]2O)c(=O)n1 [Cytarabin] + C=CC(=O)N1CCN(c2nc(=O)n(-c3c(C)ccnc3C(C)C)c3nc(-c4c(O)cccc4F)c(F)cc23)[C@@H](C)C1 [sotorasib] | 8.17 | 5.6 |
| O=C(O)C1(C(=O)O)CCC1.[NH2-].[NH2-].[Pt+2] [Carboplatin] + C=CC(=O)N1CCN(c2nc(=O)n(-c3c(C)ccnc3C(C)C)c3nc(-c4c(O)cccc4F)c(F)cc23)[C@@H](C)C1 [sotorasib] | -4.17 | 11.6 |
| CO[C@@]12[C@H](COC(N)=O)C3=C(C(=O)C(C)=C(N)C3=O)N1C[C@@H]1N[C@@H]12 [Mitomycin C] + C=CC(=O)N1CCN(c2nc(=O)n(-c3c(C)ccnc3C(C)C)c3nc(-c4c(O)cccc4F)c(F)cc23)[C@@H](C)C1 [sotorasib] | 4.84 | 11 |
| CO[C@H]1CC[C@H](n2c([C@@H]3CCCC(=O)N3c3ccc(F)c(F)c3)nc3cc(-c4c(C)noc4C)ccc32)CC1 [CCS1477] + C=CC(=O)N1CCN(c2nc(=O)n(-c3c(C)ccnc3C(C)C)c3nc(-c4c(O)cccc4F)c(F)cc23)[C@@H](C)C1 [sotorasib] | 11.8 | 13.8 |
| CCc1cnn2c(NCc3ccc[n+]([O-])c3)cc(N3CCCC[C@H]3CCO)nc12 + C=CC(=O)N1CCN(c2nc(=O)n(-c3c(C)ccnc3C(C)C)c3nc(-c4c(O)cccc4F)c(F)cc23)[C@@H](C)C1 [sotorasib] | 2.65 | 7.04 |
| O=c1[nH]cc(F)c(=O)[nH]1 [Fluorouracil (5-FU)] + C=CC(=O)N1CCN(c2nc(=O)n(-c3c(C)ccnc3C(C)C)c3nc(-c4c(O)cccc4F)c(F)cc23)[C@@H](C)C1 [sotorasib] | 15.4 | 2.26 |
| COc1ccccc1-c1cc(Nc2cccc(CS(N)(=O)=O)c2)ncn1 [LDC-067] + C=CC(=O)N1CCN(c2nc(=O)n(-c3c(C)ccnc3C(C)C)c3nc(-c4c(O)cccc4F)c(F)cc23)[C@@H](C)C1 [sotorasib] | 11.1 | 5.31 |
| C/C=C1\NC(=O)[C@H]2CSSCC/C=C/[C@H](CC(=O)N[C@H](C(C)C)C(=O)N2)OC(=O)[C@H](C(C)C)NC1=O [Romidepsin] + C=CC(=O)N1CCN(c2nc(=O)n(-c3c(C)ccnc3C(C)C)c3nc(-c4c(O)cccc4F)c(F)cc23)[C@@H](C)C1 [sotorasib] | 12.7 | 5.9 |
| C[C@@H]1C[C@H]2[C@@H]3CCC4=CC(=O)C=C[C@]4(C)[C@@]3(F)[C@@H](O)C[C@]2(C)[C@@]1(O)C(=O)CO [Dexamethasone] + C=CC(=O)N1CCN(c2nc(=O)n(-c3c(C)ccnc3C(C)C)c3nc(-c4c(O)cccc4F)c(F)cc23)[C@@H](C)C1 [sotorasib] | -13.1 | -0.78 |
| Cc1cn(-c2cc(NC(=O)c3ccc(C)c(Nc4nccc(-c5cccnc5)n4)c3)cc(C(F)(F)F)c2)cn1 [Nilotinib] + C=CC(=O)N1CCN(c2nc(=O)n(-c3c(C)ccnc3C(C)C)c3nc(-c4c(O)cccc4F)c(F)cc23)[C@@H](C)C1 [sotorasib] | 14.3 | 6.86 |
| CCOC(=O)CCNc1cc(N2CCc3ccccc3CC2)nc(-c2ccccn2)n1 [GSK-J4] + C=CC(=O)N1CCN(c2nc(=O)n(-c3c(C)ccnc3C(C)C)c3nc(-c4c(O)cccc4F)c(F)cc23)[C@@H](C)C1 [sotorasib] | -0.52 | -0.59 |
| C[C@@H]1CCN(C(=O)CC#N)C[C@@H]1N(C)c1ncnc2[nH]ccc12 [Tofacitinib citrate] + C=CC(=O)N1CCN(c2nc(=O)n(-c3c(C)ccnc3C(C)C)c3nc(-c4c(O)cccc4F)c(F)cc23)[C@@H](C)C1 [sotorasib] | 2.98 | 1.35 |
| COc1cccc2c1C(=O)c1c(O)c3c(c(O)c1C2=O)C[C@@](O)(C(=O)CO)C[C@@H]3O[C@H]1C[C@H](N)[C@H](O)[C@H](C)O1 [Doxorubicin] + C=CC(=O)N1CCN(c2nc(=O)n(-c3c(C)ccnc3C(C)C)c3nc(-c4c(O)cccc4F)c(F)cc23)[C@@H](C)C1 [sotorasib] | 11 | 11.1 |
